Experimental data as given in patent publication US11866483B2, “Fibrosis-inhibiting composition, cells producing same, and cell sheet comprising said cells” (KanonCure, Inc., priority 2018, dated 2024).

Key:
[1] = tested on: MMP-2; test: Western blotting of culture supernatant of UE7T-13 cells, MMP-2; assay type: cell-based; conditions: 15 μM IC-2, UE7T-13 cells, culture supernatant Day 9, vs 0.1% DMSO
Procedure: (§1) The number of the culture dishes prepared was 6.
(§2) The culture medium was exchanged in the same manner as Day 0. […] That is, the cells of chemical-untreated group, of which culture medium was collected for MSC, were seeded on 3 culture dishes with a diameter of 10 cm.
(§3) (2) A 12 ml aliquot of the supernatant was transferred to an Amicon Ultra-15 Centrifugal Filter Unit and was centrifuged at 5,000 g for 60 to 90 min.
(§4) (3) The absorbance of the enriched culture supernatant (secretome) was measured using a NanoDrop at 280 nm and the protein level was assayed. The blank culture medium and 2× modified RIPA buffer were added to adjust the protein concentration to 1.0 μg/μl. Then, a sonicator (BioRuptur manufactured by COSMO BIO, Tokyo, Japan) was used to perform the total 1 min and 4 cycles of sonication, each cycle including sonication at 200 W for 15 sec and a pause for 30 sec in ice bath. Then, 5×SDS sample buffer was added to adjust the protein concentration to 0.8 μg/μl. Finally, a block incubator (IKA, Staufen, Germany) was used for heat denaturing at 98° C. for 5 min. […]
(§5) After completion of the primary antibody reaction, the membranes were washed in a suitable volume of TBS-T for 10 min 3 times. […] After that, 1 ml of ECL Prime liquid (GE Healthcare Life Sciences) was applied to each membrane of which chemiluminescence was detected with a LAS-4000 (Fujifilm Corporation, Tokyo, Japan).

[2] = tested on: thioredoxin (TRX); conditions: 15 μM IC-2, UE7T-13 cells, culture supernatant Day 9
Procedure: Expression and production of MMP family members and TRX in cultured cells or the secreted products of those cells were determined by Western blotting and ELISA.
Cells: bone marrow-derived mesenchymal stem cell line, UE7T-13 cells.
UE7T-13 cells were seeded on each culture dish with a diameter of 10 cm such that the cell count in each dish was 9.0×10^3 cells/cm^2. The number of the culture dishes prepared was 6.
Cells in the remaining 3 culture dishes were treated with DMSO as control. Specifically, DMSO was added by completely exchanging the culture medium with DMEM/10% FBS containing DMSO at the final concentration of 0.1%.
For the DMSO treatment control, the culture medium was completely exchanged with DMEM/0.05% FBS containing DMSO at the final concentration of 0.1%. For the MSC group, the culture medium was completely exchanged with DMEM/0.05% FBS.
(1) A 5 ml aliquot of culture medium was collected from the culture dishes and these aliquots were combined in one tube for each group. […]
The aliquots of culture supernatants collected at Day 9 for ELISA assay were used to determine the production of thioredoxin by ELISA. […] The absorbance at 450 nm was measured using a microplate reader (Tecan Group Ltd). The content of thioredoxin in the culture supernatants was calculated from the absorbance using the calibration curve.

[3] = tested on: MMP-13 (active form); test: Western blotting of culture supernatant of UE7T-13 cells, MMP-13; assay type: cell-based; conditions: 15 μM IC-2, UE7T-13 cells, culture supernatant Day 9, vs 0.1% DMSO
Procedure: as §1, §2, §3, §4, §5

[4] = tested on: MMP-14; test: Western blotting of culture supernatant of UE7T-13 cells, MMP-14; assay type: cell-based; conditions: 15 μM IC-2, UE7T-13 cells, culture supernatant Day 9, vs 0.1% DMSO
Procedure: as §1, §2, §3, §4, §5

[5] = tested on: MMP-1; test: Western blotting of culture supernatant of UE7T-13 cells, MMP-1; assay type: cell-based; conditions: 15 μM IC-2, UE7T-13 cells, culture supernatant Day 9, vs 0.1% DMSO
Procedure: as §1, §2, §3, §4, §5

O=C1[C@H](c2ccccc2)N2C(=O)CCN(C(=O)NCc3ccccc3)[C@H]2CN1Cc1cccc2ccccc12 [IC-2, (6S, 9aS)-6-phenyl-8-naphthalen-1-ylmethyl-4,7-dioxo-hexahydro-pyrazino[1,2-a] pyrimidine-1-carbocylic acid benzylamide]
MMP-2 increase as compared to DMSO control group (chemiluminescence band intensity) [1]: about 1.5 fold | production of thioredoxin, increase (ELISA) [2]: 1.5 fold | MMP-13 (active form) increase as compared to DMSO control group (chemiluminescence band intensity) [3]: about 5.1 fold | MMP-14 increase as compared to DMSO control group (chemiluminescence band intensity) [4]: about 2.1 fold | MMP-1 increase as compared to DMSO control group (chemiluminescence band intensity) [5]: about 4.1 fold
